Data from ChEMBL document CHEMBL3352169, “Fragment-based hit discovery and structure-based optimization of aminotriazoloquinazolines as novel Hsp90 inhibitors” (Bioorg Med Chem, 2014).

Tests used:
[1] = Intrinsic clearance in rat liver microsomes; assay type: ADME; conditions: read-out: CLH
[2] = Intrinsic clearance in human liver microsomes; assay type: ADME; conditions: read-out: CLH
[3] = Permeability across apical to basolateral side in human Caco2 cells; assay type: ADME, cell-based; conditions: Caco-2
[4] = Oral bioavailability in mouse at 5 mg/kg; assay type: ADME, organism-based; conditions: in vivo
[5] = Clearance in mouse at 5 mg/kg, iv; assay type: ADME, organism-based; design: dose 5 mg/kg, route intravenous; conditions: in vivo

CLint scaled [1]: 600 mL/min/kg
CLint scaled [2]: 29.2 mL/min/kg
Papp A→B [3]: 65.4 ×10⁻⁶ cm/s
bioavailability [4]: 1.5%
clearance [5]: 132 mL/min/kg
Compound: OCCCNc1ccc2c(c1)nc(-c1ccc3c(c1)OCO3)n1ncnc21
